According to patent publication US9744188B2, “Methods of promoting neuronal outgrowth by gypican 2 that binds to receptor protein tyrosine phosphatase sigma” (PRESIDENT AND FELLOWS OF HARVARD COLLEGE, priority 2011, dated 2017):

Biological target: T1, DLAR Ig1-FN3 (Drosophila melanogaster, UniProt P16621)
T1 construct: hexahistidine (C); made in house; host or cells: HEK-293T cells with kifunensine or GnTI- HEK293S cells
T1 sequence (P16621 33-606): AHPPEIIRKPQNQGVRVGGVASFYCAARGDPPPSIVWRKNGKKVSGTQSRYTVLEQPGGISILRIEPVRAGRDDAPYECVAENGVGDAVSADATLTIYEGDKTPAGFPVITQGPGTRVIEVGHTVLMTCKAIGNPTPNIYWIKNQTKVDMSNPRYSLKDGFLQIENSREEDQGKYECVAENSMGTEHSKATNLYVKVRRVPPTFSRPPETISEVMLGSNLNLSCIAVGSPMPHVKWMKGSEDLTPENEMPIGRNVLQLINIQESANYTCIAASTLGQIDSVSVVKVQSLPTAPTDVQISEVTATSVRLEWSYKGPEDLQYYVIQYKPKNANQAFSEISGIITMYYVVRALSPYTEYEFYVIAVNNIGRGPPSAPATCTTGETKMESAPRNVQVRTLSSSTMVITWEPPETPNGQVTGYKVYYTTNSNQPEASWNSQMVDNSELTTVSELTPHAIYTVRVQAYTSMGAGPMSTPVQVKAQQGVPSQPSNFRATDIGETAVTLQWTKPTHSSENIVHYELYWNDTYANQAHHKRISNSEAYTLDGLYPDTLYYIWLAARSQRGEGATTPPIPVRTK
Assay: SEC-MALS, heparin-induced oligomerisation of DLAR
Assay type: biochemical
Protocol: MALS experiments were carried out on a […] System (Wyatt Technologies). All proteins were purified as described above, and samples were incubated alone or with an oligosaccharide ligand for an hour at room temperature prior to use in MALS analysis. For size defined heparin fragments (Iduron dp4-dp30; product codes HO04-HO30) a five-fold molar excess of oligosaccharide to protein was used, except for the series of experiments presented in FIG. 13, where a range of RPTPσ constructs were tested with a separate batch of dp10 at a two-fold molar excess (FIG. 37, highlighted in blue). Equivalent amounts (equal mg/ml concentrations) of HS (Iduron, GAG-HS01) and CS (Sigma, C4384) were used for MALS experiments as had been for heparin dp10 (in giving a five-fold molar excess). […] All Ig1-FN3 proteins were injected at approximately 10 μM. Size exclusion chromatography was performed in 10 mM Tris, 50 mM NaCl, pH 7.5 on a Superdex75 or Superdex200 HR10/30 column (GE Healthcare), attached to an Agilent chromatography system. An Optilab rEX Refractive Index detector and a Dawn Helios II Multi-Angle Light Scattering (MALS) detector recorded the refractive index and light scattering of the samples upon elution from the size exclusion column. The Wyatt software ASTRA was used to analyse all the data collected.

- oligomerisation of DLAR Ig1-FN3: promotes the oligomerisation
Substance: Heparin
